Data: patent publication EP0411593A2, “Use of bis (aminothiocarbonyl) disulfide for treating ulcer” (KURARAY CO., LTD., priority 1989, dated 1991)

Columns and labels:
[1] = tested on: HCl-ethanol induced ulcer; assay: Antiulcer activity (HCl-ethanol ulcer), oral administration; format: in vivo; conditions: rats, inhibition of ulcer coefficient vs control; for Inhibitation Rate (%): dose 5 mg/kg orally one hour before HCl-ethanol
Procedure: Antiulcer activity (HCl-ethanol ulcer) 1.5 ml of 60% ethanol aqueous solution containing 150 mM of hydrochloric acid was orally administered to rats. One hour thereafter the rats were sacrificed and the length (mm) of HCl-ethanol induced ulcer generated at the mucosa of the stomach was measured. The sum of the ulcer length per animal is defined as ulcer coefficient. Specimens each was orally administered one hour before the HCl-ethanol administration. Inhibition rate was calculated by dividing the difference in ulcer coefficient between the control group and the specimen-administered group by the ulcer coefficient of the control group.

[2] = Acute toxicity through oral administration; conditions: mouse, in vivo, male ICR-strain mice (5 weeks old), read-out: LD₅₀
Procedure: Acute toxicity tests through oral administration were carried out using male ICR-strain mice (5 weeks old).
The LD₅₀ values of the compound (1) of the present invention was 2000 mg/kg or more and thus higher saftety as compared with the effective amount was ascertained.

Compound | Inhibitation Rate (%) [1] [%] | other results
S=C(SSC(=S)N1CCOCC1)N1CCOCC1 [Compound Number (1)] | 93.7 | LD50 [2]: ≥ 2000 mg/kg
CC1CN(C(=S)SSC(=S)N2CC(C)OC(C)C2)CC(C)O1 (centres unmarked) [Compound Number (2)] | 81.7 | 
OCCN1CCN(C(=S)SSC(=S)N2CCN(CCO)CC2)CC1 [Compound Number (3)] | 24.3 | 
S=C(SSC(=S)N1CCCCC1)N1CCCCC1 [Compound Number (4)] | 64.1 | 
OCCC1CCN(C(=S)SSC(=S)N2CCC(CCO)CC2)CC1 [Compound Number (5), bis[[4-(2-hydroxyethyl)piperidiono]thiocarbonyl]disulfide] | 37.4 | 
CC(=O)c1ccc2c(c1)C(=O)C1(CC1)O2 [Spizofurone, reference compound] |  | Inhibiton Rate (%) ([1]; dose 100 mg/kg orally one hour before HCl-ethanol): 86.6%
Teprenone [reference compound] |  | Inhibiton Rate (%) ([1]; dose 25 mg/kg orally one hour before HCl-ethanol): 48.9%
